US20220356170A1, “SREBP INHIBITOR COMPRISING A THIOPHENE CENTRAL RING” (Capulus Therapeutics, LLC, priority 2019, published 2022)

Tests used:
[1] = Half-life in mouse liver microsomes; format: in vitro ADME; settings: read-out: Mouse LM: Half life
Method: Half-life Human Microsomes: Compound 1 was evaluated for stability in human liver microsomes. A 10 mM stock solution of Compound 1 was prepared in DMSO and diluted with water: acetonitrile (1:1) to a concentration of 1 mM. A working concentration of 100 μM was prepared by further dilution with water: acetonitrile (1:1). To make the preincubation mixture, 2.5 μL of the diluted Compound 1 was combined with 75 μL of human liver microsomes at 3.33 mg/mL, and 85 μL of 100 mM potassium phosphate buffer, and this mixture pre-incubated for 10 min at 37° C. To make the 60 minute mixture without cofactor, 32.5 μL of the preincubation mixture was combined with 17.5 μL of 100 mM potassium phosphate buffer and incubated for 60 min at 37° C. […] To prepare the sample mixture to be evaluated, 25 μL incubation mixture was combined with 200 μL of acetonitrile containing internal standard and vortexed for 5 min at 1200 rpm, then centrifuged for 10 min at 4000 rpm. […] The sample mixture was evaluated by LC-MS/MS using 10 mM ammonium acetate with 0.1% FA as the aqueous mobile phase, and methanol as the organic mobile phase.
Half-life Rat and Mouse Microsomes: Compound 1 was evaluated in rat and mouse liver microsomes following a similar procedure as described above for human liver microsomes.

[2] = Half-life in human liver microsomes; format: in vitro ADME; settings: NADPH, 37° C., read-out: Human LM: Half life
Method: Half-life Human Microsomes: Compound 1 was evaluated for stability in human liver microsomes. A 10 mM stock solution of Compound 1 was prepared in DMSO and diluted with water: acetonitrile (1:1) to a concentration of 1 mM. A working concentration of 100 μM was prepared by further dilution with water: acetonitrile (1:1). To make the preincubation mixture, 2.5 μL of the diluted Compound 1 was combined with 75 μL of human liver microsomes at 3.33 mg/mL, and 85 μL of 100 mM potassium phosphate buffer, and this mixture pre-incubated for 10 min at 37° C. To make the 60 minute mixture without cofactor, 32.5 μL of the preincubation mixture was combined with 17.5 μL of 100 mM potassium phosphate buffer and incubated for 60 min at 37° C. To make the 0 min sample with cofactor (NADPH), 16.25 μL of the preincubation mixture was combined with 200 μL of acetonitrile containing internal standard and 8.75 μL of cofactor (NADPH). […] To prepare the sample mixture to be evaluated, 25 μL incubation mixture was combined with 200 μL of acetonitrile containing internal standard and vortexed for 5 min at 1200 rpm, then centrifuged for 10 min at 4000 rpm. […] The sample mixture was evaluated by LC-MS/MS using 10 mM ammonium acetate with 0.1% FA as the aqueous mobile phase, and methanol as the organic mobile phase.

[3] = tested on: SREBP Target Gene in HepG2 cells; experiment: Q-PCR analysis of SREBP target gene expression; format: cell-based; settings: 500 nM, 48 hour
Method: The effect of Compound 1 on the gene expression of HepG2 cells was evaluated.
HepG2 cells (P2) were seeded in 24 well plate (80,000 cells/ well) for RNA extraction and in a 96 well plate (10,000 cells/ well) for Cell Titer Glow (CTG). The media used was DMEM and contained 10% FBS. Compound 1 was evaluated at […] for 48 hours. Two biological replicates per experimental group were evaluated for RNA, and 3 biological replicates per experimental group analyzed with CTG.
For gene analysis RNA was harvested with RNEasy kit and 20-100 ng used to synthesize cDNA with random primers. Quantitative PCR was performed on 1 pg to 100 ng cDNA for the following genes: ACACA, ACLY, FASN, LSS, PNPLA3. Gene expression levels were determined using […] comparing treated to mock or vehicle treated cells as a baseline.

[4] = In vivo pharmacokinetics, oral; settings: male C57 BL/6 mice
Method: The in vivo pharmacokinetic properties of Compound 1 by both intravenous and oral administration were evaluated in male C57 BL/6 mice. The in vivo pharmacokinetic properties of Compound 2 by both intravenous and oral administration were evaluated in male C57 BL/6 mice for comparison.
Animals were housed in cages with clean bedding. Certified rodent diet was provided. Water was available ad libitum. Environmental controls for the animal room were set to maintain a temperature of 22 to 25° C., humidity of 40-70% RH, and a 12-hour light /12-hour dark cycle. Normal healthy animals certified by the attending veterinarian were selected and acclimatized for minimum three days prior to initiation of study.
Procedure for Blood Withdrawal: Mice were anesthetized using gaseous anesthesia. Blood samples were collected through a capillary, guided in retro-orbital plexus. At each time point, blood samples from 3 mice of each respective group were collected. The blood samples were collected in pre-labeled tubes. 0.2 to 0.3 mL of blood were collected from each mouse. After collection of the blood samples at each time point, the samples were stored on ice prior to centrifugation. Blood samples were centrifuged within 15 minutes to separate plasma. Centrifugations was done at 1540 rcf (5000 rpm) at 4° C. for 10 minutes. The plasma was separated and transferred to pre-labeled micro-centrifuge tubes and promptly frozen at −80±10° C. until bioanalysis was performed. Samples were identified by test item, group, animal number, and collection time point.
To evaluate pharmacokinetic properties of oral delivery, nine male C57 BL/6 mice were administered 10 mg Compound 1/kg animal weight by mouth. The concentration of Compound 1 in the plasma of the animals was evaluated at 0.25, 0.5, 1, 2, 4, 6, 8, and 24 hr by taking blood samples. Compound 2 was similarly administered for comparison.

[5] = In vitro % Fu, human plasma; format: in vitro ADME; settings: read-out: In Vitro % Fu (Hu Plasma)
[6] = Log D, octanol/aqueous buffer partitioning; format: physicochemical; settings: 1-octanol/aqueous buffer; 1-octanol/buffer
Method: Log D Procedure: The Log D of Compound 1 was evaluated by octanol/aqueous buffer partitioning. 500 μL of organic phase (1-octanol) was added to each well of a 2 mL deep well plate, followed by 500 μL of buffer and 15 μL of test compound in DMSO (0.15 mM). The plate was vortexed for 10 seconds and incubated at room temperature for 1 hr on a plate shaker at 200 rpm. After incubation, the samples were allowed to equilibrate for 20 min and then centrifuged at 4000 rpm for 30 min for complete phase separation. The distribution of test compound in buffer and octanol phase was analyzed by HPLC-UV. Log D=Log (Area of Octanol/Area of Buffer)

[7] = treated compared to mock or vehicle treated cells as baseline
[8] = mouse, plasma, oral, dose 10.00 mg/kg (Compound 1), 12.01 mg/kg (Compound 2)

half-life at 1 µM [1]: 2 h
half-life at 1 µM [2]: 1.08 h
bioavailability ([4]; mouse, plasma, oral vs intravenous): 59.7%
AUC(0-inf) [4, 8]: 76300 ng·h/mL
AUC(0-t) [4, 8]: 71200 ng·h/mL
Cmax [4, 8]: 7840 ng/mL
Tmax [4, 8]: 0.5 h
half-life [4, 8]: 6.18 h
MRT last ([4]; mouse, plasma, oral, dose 10.00 mg/kg (Compound 1), 12.01 mg/kg (Compound 2), read-out: MRT0-last): 7.6 h
AUCExtra ([4]; oral, dose 10.00 mg/kg (Compound 1), 12.01 mg/kg (Compound 2)): 6.77%
fraction unbound [5]: 0.026
logD [6]: 3.38
Compound: CC(C)(O)c1cc(-c2csc(-c3ccc(C(=O)N4CCC(O)CC4)cc3Cl)c2)ccn1 [Compound 1, (3-chloro-4-(4-(2-(2-hydroxypropan-2-yl)pyridin-4-yl)thiophen-2-yl)phenyl)(4-hydroxypiperidin-1-yl)methanone]
Total Gene Average ([3]; average of ACACA, ACLY, FASN, LSS, PNPLA3): 0.467
ACACA gene expression (Q-PCR) [3, 7]: 0.648
ACLY gene expression (Q-PCR) [3, 7]: 0.663
FASN gene expression (Q-PCR) [3, 7]: 0.542
LSS gene expression (Q-PCR) [3, 7]: 0.295
PNPLA3 gene expression (Q-PCR) [3, 7]: 0.187
